Test results taken from article PMC7504258, “New Hybrids of 4-Amino-2,3-polymethylene-quinoline and p-Tolylsulfonamide as Dual Inhibitors of Acetyl- and Butyrylcholinesterase and Potential Multifunctional Agents for Alzheimer’s Disease Treatment” (Molecules, 2020).

Tests used:
Equine serum BChE = target: T1, Equine serum BChE (Equus caballus, UniProt P81908); experiment: biochemical; details: for IC50: mean ± SEM, n = 3, pH 7.5, 25 °C; for Selectivity, S = IC50 AChE/IC50 BChE: ratio IC50 AChE/IC50 BChE
T1 construct: two enzymes of non-human origin: equine serum BChE and porcine liver CES; purchased Sigma-Aldrich; host or cells: equine serum
Method: (§1) All experiments were carried out in accordance with the standard protocols approved by IPAC RAS. Human erythrocyte AChE, equine serum BChE, porcine liver CES, acetylthiocholine iodide (ATCh), butyrylthiocholine iodide (BTCh), 5,5′-dithio-bis-(2-nitrobenzoic acid) (DTNB), and 4-nitrophenol acetate (4-NPA) were purchased from Sigma-Aldrich (Saint Louis, MO, USA).
(§2) AChE and BChE activities were measured by the colorimetric method of Ellman et al.. The assay solution consisted of 0.1 M K/Na phosphate buffer pH 7.5, 25 °C, 0.33 mM DTNB, 0.02 unit/mL AChE or BChE, and 1 mM substrate (ATCh or BTCh, respectively). Reagent blanks consisted of reaction mixtures without substrates.
(§3) An initial evaluation of inhibitory activity of compounds was carried out by determination of the AChE, BChE and CES inhibition at a compound concentration of 20 µM. For this, a sample of the corresponding enzyme was incubated with the test compound for 5 min at 25 °C for temperature equilibration; then the enzyme residual activity was determined. Each experiment was performed in triplicate.
(§4) The test compounds were added to the assay solution and incubated with the enzyme at 25 °C for 5 min (for temperature equilibration) followed by the addition of substrate. A parallel control was made for the assay solution with no inhibitor.
(§5) Measurements were performed in the FLUOStar OPTIMA microplate spectrophotometer (BMG Labtech, Ortenberg, Germany). Each experiment for the IC50 assay was performed in triplicate. The results were expressed as the mean ± SEM. The reaction rates in the presence and absence of inhibitor were compared, and the percent residual enzyme activity due to the presence of test compounds was calculated. IC50 values were determined graphically from inhibition curves (log inhibitor concentration vs. percent residual enzyme activity) using Origin 6.1 software (OriginLab, Northampton, MA, USA).

Human erythrocyte AChE = target: T2, Human erythrocyte AChE (Homo sapiens, UniProt P22303); experiment: biochemical; details: mean ± SEM, n = 3; pH 7.5, 25 °C
T2 construct: AChE from human erythrocytes was used; purchased Sigma-Aldrich; host or cells: human erythrocytes
Method: as §1, §2, §3, §4, §5

Porcine liver CES = experiment: CES inhibition (4-nitrophenyl acetate hydrolysis); type: biochemical; details: inhibition at compound concentration 20 µM; mean ± SEM, n = 3
Method: as §1
Final enzyme and substrate (4-nitrophenyl acetate) concentrations were 0.02 unit/mL and 1 mM, respectively. Assays were carried out with a blank containing all constituents except porcine CES to assess non-enzymatic hydrolysis.
as §3, §4, §5

EeAChE PAS = EeAChE PAS (Electrophorus electricus, UniProt O42275); experiment: Propidium iodide displacement from the PAS of EeAChE (fluorescence); type: binding; details: compound concentration 20 µM; mean ± SEM, n = 3
Method: EeAChE was used owing to its high degree of purification, high activity, and lower cost than human AChE (hAChE).
To determine the degree of displacement (% displacement) of propidium from the PAS of AChE, EeAChE (final concentration, 7 μM) was incubated with the test compound at a concentration of 20 μM in 1 mM Tris-HCl buffer pH 8.0, 25 °C, for 15 min. Then, propidium iodide solution (final concentration, 8 μM) was added, the samples were incubated for 15 min and the fluorescence spectrum (530 nm (excitation) and 600 nm (emission)) was taken. […] The blank contained propidium iodide of the same concentration in 1 mM Tris-HCl buffer pH 8.0. The measurements were carried out in triplicate on the FLUOStar Optima microplate reader (BMG Labtech), and the results were calculated by the following formula:% Displacement = 100 − (IFAChE+ Propidium + inhibitor/IFAChE + Propidium) × 100(1) where IFAChE + Propidium is the fluorescence intensity of the propidium associated with AChE in the absence of the test compound (taken as 100%), and IFAChE + Propidium + inhibitor is the fluorescence intensity of the propidium associated with AChE in the presence of the test compound.

AChE = target: T3, AChE (Homo sapiens, UniProt P22303); experiment: Kinetic study of AChE inhibition, steady-state inhibition constants; type: biochemical; details: for Type of AChE inhibition: changes in both Km and Vmax
T3 construct: AChE from human erythrocytes was used; purchased Sigma-Aldrich; host or cells: human erythrocytes
Method: (§6) • Kinetic Study of AChE and BChE Inhibition. Determination of Steady-State Inhibition Constants
(§7) Mechanisms of AChE and BChE inhibition were assessed via a thorough analysis of enzyme kinetics. Residual activity was measured following 5 min incubation at 25 °C (for temperature equilibration) with three increasing concentrations of inhibitor and six decreasing substrate concentrations. Substrate was added immediately after the 5 min incubation with inhibitor and the rates of absorption were monitored at 412 nm using the FLUOStar OPTIMA (BMG Labtech) microplate spectrophotometer. Inhibition constants Ki (competitive component) and αKi (noncompetitive component) were determined by linear regression of 1/V versus 1/[S] double-reciprocal (Lineweaver-Burk) plots using Origin 6.1 software. Data were expressed as mean ± SEM (n = 3 experiments).

BChE = target: T4, BChE (Equus caballus, UniProt P81908); experiment: Kinetic study of BChE inhibition, steady-state inhibition constants; type: biochemical
T4 construct: two enzymes of non-human origin: equine serum BChE and porcine liver CES; purchased Sigma-Aldrich; host or cells: equine serum
Method: as §6, §7

[1] = test system: AChE-induced Aβ aggregation; details: at 100 µM; cited from earlier work

T1 sequence (P81908 whole entry): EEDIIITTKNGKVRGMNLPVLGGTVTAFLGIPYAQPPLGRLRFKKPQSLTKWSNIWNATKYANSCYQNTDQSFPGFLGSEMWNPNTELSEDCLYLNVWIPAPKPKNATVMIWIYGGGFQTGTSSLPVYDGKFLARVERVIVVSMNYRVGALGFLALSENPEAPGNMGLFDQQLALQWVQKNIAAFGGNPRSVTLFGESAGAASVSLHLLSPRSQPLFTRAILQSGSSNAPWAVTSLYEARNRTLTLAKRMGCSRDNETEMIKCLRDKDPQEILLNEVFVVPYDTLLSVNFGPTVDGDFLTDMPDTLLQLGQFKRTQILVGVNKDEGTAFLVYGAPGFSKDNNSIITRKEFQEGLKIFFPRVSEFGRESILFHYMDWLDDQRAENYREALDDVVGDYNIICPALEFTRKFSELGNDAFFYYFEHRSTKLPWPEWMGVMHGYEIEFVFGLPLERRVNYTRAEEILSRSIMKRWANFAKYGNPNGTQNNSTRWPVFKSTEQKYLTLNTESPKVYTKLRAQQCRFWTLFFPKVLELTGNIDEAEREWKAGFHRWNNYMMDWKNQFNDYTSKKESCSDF
T4 sequence (P81908 whole entry): as above
T2 sequence (P22303 other isoform, or with tags, fused parts or gaps): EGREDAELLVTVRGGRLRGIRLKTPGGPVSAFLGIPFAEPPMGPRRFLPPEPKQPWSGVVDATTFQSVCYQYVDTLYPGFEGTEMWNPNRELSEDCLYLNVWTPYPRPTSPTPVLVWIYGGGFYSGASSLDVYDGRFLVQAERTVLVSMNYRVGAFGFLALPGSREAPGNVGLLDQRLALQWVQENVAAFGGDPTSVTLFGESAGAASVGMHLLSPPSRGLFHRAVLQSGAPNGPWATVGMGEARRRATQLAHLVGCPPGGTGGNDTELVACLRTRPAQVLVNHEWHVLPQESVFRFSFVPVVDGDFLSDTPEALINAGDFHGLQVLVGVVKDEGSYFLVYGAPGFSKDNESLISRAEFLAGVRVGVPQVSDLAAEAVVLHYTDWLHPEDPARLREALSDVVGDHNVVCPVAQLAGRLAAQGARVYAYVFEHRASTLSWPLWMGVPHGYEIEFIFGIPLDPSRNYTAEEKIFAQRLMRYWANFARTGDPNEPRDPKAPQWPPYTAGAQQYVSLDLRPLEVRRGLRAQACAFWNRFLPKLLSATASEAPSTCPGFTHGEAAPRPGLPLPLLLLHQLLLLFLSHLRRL
T3 sequence (P22303 other isoform, or with tags, fused parts or gaps): as above
Sequence of EeAChE PAS (O42275 24-633): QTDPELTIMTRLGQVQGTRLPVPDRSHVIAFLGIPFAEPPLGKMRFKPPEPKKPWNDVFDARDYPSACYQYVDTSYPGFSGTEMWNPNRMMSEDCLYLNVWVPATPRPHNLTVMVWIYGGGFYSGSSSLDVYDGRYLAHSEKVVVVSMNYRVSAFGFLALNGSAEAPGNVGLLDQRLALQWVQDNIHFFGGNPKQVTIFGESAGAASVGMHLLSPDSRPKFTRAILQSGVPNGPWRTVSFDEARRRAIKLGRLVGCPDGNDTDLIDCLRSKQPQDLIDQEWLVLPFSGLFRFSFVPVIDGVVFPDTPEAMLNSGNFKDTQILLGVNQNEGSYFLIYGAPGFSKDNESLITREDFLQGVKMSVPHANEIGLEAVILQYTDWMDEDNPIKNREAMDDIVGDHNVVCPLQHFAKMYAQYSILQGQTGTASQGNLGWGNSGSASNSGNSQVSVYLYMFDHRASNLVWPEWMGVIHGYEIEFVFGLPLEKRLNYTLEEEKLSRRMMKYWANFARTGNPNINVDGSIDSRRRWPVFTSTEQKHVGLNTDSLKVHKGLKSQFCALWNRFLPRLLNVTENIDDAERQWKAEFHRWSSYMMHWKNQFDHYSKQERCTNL

Structure (SMILES)	IC50 (Equine serum BChE)	Selectivity, S = IC50 AChE/IC50 BChE (Equine serum BChE)	IC50 (Human erythrocyte AChE)	Porcine Liver CES, (%) (Porcine liver CES)	Displacement of Propidium from the EeAChE PAS (EeAChE PAS)	αKi (noncompetitive component), AChE (AChE; Lineweaver-Burk analysis)	Ki (AChE; Lineweaver-Burk analysis, read-out: Ki (competitive component), AChE)	Type of AChE inhibition (AChE)	αKi (noncompetitive component), BChE (BChE; Lineweaver-Burk analysis)	Ki (BChE; Lineweaver-Burk analysis, read-out: Ki (competitive component), BChE)	Type of BChE inhibition (BChE; changes in both Km and Vmax)	decrease in AChE-induced Aβ aggregation [1]
Cc1ccc(S(=O)(=O)NCCNc2c3c(nc4ccccc24)CCC3)cc1 [7a, N-(2-(2,3-Dihydro-1H-cyclopenta[b]quinolin-9-ylamino)-ethyl)-4-methyl-benzenesulfonamide]	924 ± 31 nM	9.8	9030 ± 640 nM	11.9 ± 1.5%	9.2 ± 1.0%	–	–	–	–	–	–	–
Cc1ccc(S(=O)(=O)NCCCNc2c3c(nc4ccccc24)CCC3)cc1 [7b, N-(3-(2,3-Dihydro-1H-cyclopenta[b]quinolin-9-ylamino)-propyl)-4-methyl-benzenesulfonamide]	327 ± 4 nM	23.7	7760 ± 610 nM	8.1 ± 0.6%	12.3 ± 1.1%	–	–	–	–	–	–	–
Cc1ccc(S(=O)(=O)NCCCCNc2c3c(nc4ccccc24)CCC3)cc1 [7c, N-(4-(2,3-Dihydro-1H-cyclopenta[b]quinolin-9-ylamino)-butyl)-4-methyl-benzenesulfonamide]	578 ± 25 nM	3.6	2080 ± 80 nM	9.0 ± 0.1%	14.9 ± 1.2%	–	–	–	–	–	–	–
Cc1ccc(S(=O)(=O)NCCCCCNc2c3c(nc4ccccc24)CCC3)cc1 [7d, N-(5-(2,3-Dihydro-1H-cyclopenta[b]quinolin-9-ylamino)-pentyl)-4-methyl-benzenesulfonamide]	459 ± 44 nM	4.3	1970 ± 50 nM	29.6 ± 1.2%	15.1 ± 1.4%	–	–	–	–	–	–	–
Cc1ccc(S(=O)(=O)NCCCCCCNc2c3c(nc4ccccc24)CCC3)cc1 [7e, N-(6-(2,3-Dihydro-1H-cyclopenta[b]quinolin-9-ylamino)-hexyl)-4-methyl-benzenesulfonamide]	209 ± 8 nM	–	4000 ± 90 nM	18.6 ± 0.2%	15.9 ± 1.3%	–	–	–	–	–	–	–
Cc1ccc(S(=O)(=O)NCCCNc2c3c(nc4ccccc24)CCCC3)cc1 [7f, 4-Methyl-N-(3-(1,2,3,4-tetrahydro-acridin-9-ylamino)-propyl)-benzenesulfonamide]	110 ± 5 nM	17.1	1880 ± 30 nM	2.0 ± 0.8%	9.8 ± 0.8%	–	–	–	–	–	–	–
Cc1ccc(S(=O)(=O)NCCCCNc2c3c(nc4ccccc24)CCCC3)cc1 [7g, 4-Methyl-N-(4-(1,2,3,4-tetrahydro-acridin-9-ylamino)-butyl)-benzenesulfonamide]	61.7 ± 0.3 nM	10.8	668 ± 170 nM	17.1 ± 1.4%	14.8 ± 1.3%	1.09 ± 0.02 µM	390 ± 8 nM	mixed type of inhibition	0.117 ± 0.002 µM	23.5 ± 0.2 nM	mixed type of inhibition	–
Cc1ccc(S(=O)(=O)NCCCCCNc2c3c(nc4ccccc24)CCCC3)cc1 [7h, 4-Methyl-N-(5-(1,2,3,4-tetrahydro-acridin-9-ylamino)-pentyl)-benzenesulfonamide]	68 ± 1.4 nM	1.9	131 ± 10 nM	6.7 ± 0.8%	17.5 ± 1.5%	–	–	mixed-type AChE inhibitor	–	–	–	–
Cc1ccc(S(=O)(=O)NCCCNc2c3c(nc4ccccc24)CCCCC3)cc1 [7i, 4-Methyl-N-(3-(7,8,9,10-tetrahydro-6H-cyclohepta[b]quinolin-11-ylamino)-propyl)-benzenesulfonamide]	43.1 ± 1.1 nM	64.0	2760 ± 40 nM	1.9 ± 0.9%	13.9 ± 1.3%	–	–	–	–	–	–	–
Cc1ccc(S(=O)(=O)NCCCCNc2c3c(nc4ccccc24)CCCCC3)cc1 [7j, 4-Methyl-N-(4-(7,8,9,10-tetrahydro-6H-cyclohepta[b]quinolin-11-ylamino)-butyl)-benzenesulfonamide]	78.8 ± 6 nM	14.7	1160 ± 30 nM	10.3 ± 0.8%	16.1 ± 1.4%	–	–	–	–	–	–	–
Cc1ccc(S(=O)(=O)NCCCNc2c3c(nc4ccccc24)CCCCCC3)cc1 [7k, N-(3-(6,7,8,9,10,11-Hexahydro-cycloocta[b]quinolin-12-ylamino)-propyl)-4-methyl-benzenesulfonamide]	461 ± 7 nM	24.1	11100 ± 200 nM	5.2 ± 1.5%	15.9 ± 1.7%	–	–	–	–	–	–	–
O=[N+]([O-])c1ccc(OP(=O)(O)Oc2ccc([N+](=O)[O-])cc2)cc1 [BNPP, bis-4-nitrophenyl phosphate, reference compound]	–	–	–	1.80 ± 0.11%	–	–	–	–	–	–	–	–
CC[N+](C)(CC)CCC[n+]1c(-c2ccccc2)c2cc(N)ccc2c2ccc(N)cc21 [Propidium]	–	–	–	–	–	–	–	–	–	–	–	82%
